In patent US20120149080A1, “YEAST PRODUCTION CULTURE FOR THE PRODUCTION OF BUTANOL” (Butamax(TM) Advanced Biofuels LLC, priority 2010, published 2012):

System: Saccharomyces cerevisiae BY4743
Assay: Growth (OD600) of yeast in varying isobutanol concentrations
Assay type: cell-based
Description: Saccharomyces cerevisiae BY4743 was plated from a freezer vial onto YPD agar (Teknova, Hollister, Calif.; Cat. #Y1000) and incubated overnight at 30° C. Cells from the YPD plate were inoculated into a 25 ml pre-culture of YPD broth (Teknova, Hollister, Calif.; Cat. #Y5000) with an initial OD600 of 0.06 to 0.08. The pre-culture was grown for 7 hours in an aerobic shaker at 30° C. An aliquot of the pre-culture was inoculated into 125 ml of YPD broth, with an initial OD600 of 0.06 to 0.08, and this culture was incubated with aeration at 30° C. for approximately 17 hours.
A starter culture of 150 ml of YPD was inoculated with 5 ml of the overnight culture with an initial OD600 of 0.15. This culture was incubated at 30° C. with aeration for two hours, reaching OD600 of 0.38. At this time (time=0) the cultures were challenged with varying concentrations of isobutanol as given in Table 4 and the OD600 was assayed every hour for 5 h and at 24 h.

SMILES: CC(C)CO [Isobutanol, isobutanol]
- Growth (OD 600) (0.5% isobutanol, 1 hour): 0.55 OD 600
- Growth (OD 600) (0.5% isobutanol, 2 hours): 0.74 OD 600
- Growth (OD 600) (0.5% isobutanol, 3 hours): 1.12 OD 600
- Growth (OD 600) (0.5% isobutanol, 4 hours): 1.69 OD 600
- Growth (OD 600) (0.5% isobutanol, 5 hours): 2.22 OD 600
- Growth (OD 600) (0.5% isobutanol, 24 hours): 5.19 OD 600
- Growth (OD 600) (0.5% isobutanol, time 0 hours): 0.38 OD 600
- Growth (OD 600) (0.75% isobutanol, 1 hour): 0.54 OD 600
- Growth (OD 600) (0.75% isobutanol, 2 hours): 0.68 OD 600
- Growth (OD 600) (0.75% isobutanol, 3 hours): 1.00 OD 600
- Growth (OD 600) (0.75% isobutanol, 4 hours): 1.36 OD 600
- Growth (OD 600) (0.75% isobutanol, 5 hours): 1.80 OD 600
- Growth (OD 600) (0.75% isobutanol, 24 hours): 4.97 OD 600
- Growth (OD 600) (0.75% isobutanol, time 0 hours): 0.38 OD 600
- Growth (OD 600) (1% isobutanol, 1 hour): 0.51 OD 600
- Growth (OD 600) (1% isobutanol, 2 hours): 0.62 OD 600
- Growth (OD 600) (1% isobutanol, 3 hours): 0.82 OD 600
- Growth (OD 600) (1% isobutanol, 4 hours): 0.96 OD 600
- Growth (OD 600) (1% isobutanol, 5 hours): 1.16 OD 600
- Growth (OD 600) (1% isobutanol, 24 hours): 4.41 OD 600
- cell concentration reached (1% isobutanol, after overnight growth, one OD600 = 10^7 cells/ml): about 4×10^7 cells/ml
- Growth (OD 600) (1% isobutanol, time 0 hours): 0.38 OD 600
- Growth (OD 600) (1.5% isobutanol, 1 hour): 0.46 OD 600
- Growth (OD 600) (1.5% isobutanol, 2 hours): 0.50 OD 600
- Growth (OD 600) (1.5% isobutanol, 3 hours): 0.53 OD 600
- Growth (OD 600) (1.5% isobutanol, 4 hours): 0.61 OD 600
- Growth (OD 600) (1.5% isobutanol, 5 hours): 0.65 OD 600
- Growth (OD 600) (1.5% isobutanol, 24 hours): 1.41 OD 600
- Growth (OD 600) (1.5% isobutanol, time 0 hours): 0.38 OD 600
- Growth (OD 600) (2% isobutanol, 1 hour): 0.43 OD 600
- Growth (OD 600) (2% isobutanol, 2 hours): 0.46 OD 600
- Growth (OD 600) (2% isobutanol, 3 hours): 0.47 OD 600
- Growth (OD 600) (2% isobutanol, 4 hours): 0.49 OD 600
- Growth (OD 600) (2% isobutanol, 5 hours): 0.50 OD 600
- Growth (OD 600) (2% isobutanol, 24 hours): 0.90 OD 600
- Growth (OD 600) (2% isobutanol, time 0 hours): 0.38 OD 600
- Growth (OD 600) (2.5% isobutanol, 1 hour): 0.42 OD 600
- Growth (OD 600) (2.5% isobutanol, 2 hours): 0.42 OD 600
- Growth (OD 600) (2.5% isobutanol, 3 hours): 0.42 OD 600
- Growth (OD 600) (2.5% isobutanol, 4 hours): 0.45 OD 600
- Growth (OD 600) (2.5% isobutanol, 5 hours): 0.45 OD 600
- Growth (OD 600) (2.5% isobutanol, 24 hours): 0.52 OD 600
- Growth (OD 600) (2.5% isobutanol, time 0 hours): 0.38 OD 600
